# Experimental data published in the NIST ThermoML archive (doi:10.1016/j.fluid.2010.09.006).
# Settings: 345.7 K; Crystal; visual observation
compound,measurement,value
c1ccc2ccccc2c1 [naphthalene],vapor or sublimation pressure,3000 kPa
